Results published in patent US12286439B2, “Inhibitors of ERK nuclear translocation” (Yeda Research and Development Co. Ltd., priority 2018, dated 2025).

Experiments:
Format in all cases: cell-based
A2185 and A2352 cells = assay: Viability assay (methylene blue), two BRAF melanoma cells; settings: for cell viability (percentage of DMSO control) / viability at 10 µM: active below 40%, moderate below 80%, not active above 80%; for activity in SAR summary of FIGS. 10A-10C (cell viability): comparison with Compound Z2 or named analog; for cell viability at lower concentration: 3 μM; for viability at 10 µM: read-out: cell viability (percentage of DMSO control); for cell viability, dose response: 0.1-10 μM
Protocol: FIGS. 10A, 10B and 10C present data from screening the 20 analogs of Compound Z2 (“C-compounds”) showing three particularly active anti-proliferative compounds. […] A2185 and A2352 cells were grown in 1% FCS containing DMSO (0.1%), EPE peptide, Compound Z56, Compound Z2 or C-compounds (10 μM), for 72 hours. Compounds were categorized according to activity: (1) active, below 40%; (2) moderate activity, below 80%; (3) not active, above 80%. […] A2185 and A2352 cells were grown in 1% FCS containing DMSO (0.1%), EPE peptide (10 μM), compounds Z56, Z2 or selected C-compounds (3 μM), for 72 hours. Empty squares/circles represent individual data points of proliferation. Full squares/circles indicate average proliferation of 2 independent experiments in triplicate±SE. Bold horizontal line defines arbitrary activity threshold of activity below 40%. FIG. 10C presents dose response curves of active C-compounds compounds. A2185 and A2352 were grown in 1% FCS media containing DMSO (0.1%), EPE peptide, Z56, Z2 (10 μM) or compounds C17, C22 and C23 (0.1-10 μM), for 72 hours. […] Cell viability was measured by staining with methylene blue. Data presented as percentage of DMSO control. Bar graphs represent average of 2 independent experiments done in triplicates ±SE.
FIG. 13 presents a graph showing the effect of analogs of Compound C17 (“D-compounds”) on cell viability at a concentration of 10 μM. A2185 and A2352 cells were grown in 1% FCS media containing DMSO (0.1%) EPE peptide (10 μM), Compounds Z56, Z2, C17 (10 μM) as controls, and D-Compounds (10 μM), for 72 hours. Viable cells were measured by staining with methylene blue. Bar graphs represent average of 2 independent experiments done in triplicates. Data presented as percentage of DMSO proliferation ±standard error.
FIG. 14 presents a graph showing the effect of analogs of Compound C17 (“D-compounds”) on cell viability at a concentration of 1 μM. A2185 and A2352 cells were grown in 1% FCS media containing DMSO (0.1%), EPE peptide (10 μM), Compounds Z56, Z2 and C17 (1 and 10 μM) as controls, and D-compounds (1 μM), for 72 hours. Viable cells were measured by staining with methylene blue. Bar graphs represent average of 2 independent experiments done in triplicates. Data presented as percentage of DMSO proliferation ±standard error.
(§1) Cells were seeded at low confluence into 24, 48 or 96-well plates in complete medium. After 24 hours, medium was replaced by 1% FCS (fetal calf serum) containing appropriate treatments. Fresh medium containing the same agents was replaced every day. After 72 or 96 hours of treatment, cells were fixed with 4% formaldehyde overnight at 23° C., washed once with 0.1 M borate buffer (pH 8.5) for 10 minutes, and stained with of 1% methylene blue in 0.1 M borate buffer (pH 8.5) for 30 minutes. Excess stain was washed out with distilled water. Color was extracted by adding 0.1 M HCl (3 hours, 23° C.), and absorbance measured at 595 nm in an ELISA reader. For time course experiments, attached cells were fixed and measured at 0, 24, 48, 72 and 96 hours. For dose-response experiments, cells were treated with indicated concentrations of reagent, fixed and stained after 72 hours as above.
The ability of the selected compounds to reduce cell viability of two BRAF melanoma cells (A2185 and A2352) was evaluated. Initially, all compounds were assayed at a relatively high concentration of 10 μM.

[1] = test system: ERK1/2 nuclear translocation; assay: Determination of ERK1/2 localization by fluorescence microscopy after TPA stimulation; settings: 10 μM, 2 hours; TPA 100 nM, 15 minutes; A2185 and A2352 cells
Protocol: Determination of Protein Localization by Fluorescence Microscopy:
Indicated cells were seeded on coverslips (coated with 0.001% w/v poly-L-lysine or not, depending on the cell line) at 50% confluency. After the indicated treatment, cells were fixed in 4% paraformaldehyde/PBS for 20 minutes on an ice surface, permeabilized with 0.1% Triton X-100/PBS for 5 minutes at 23° C., then blocked in 2% BSA/PBS for 30 minutes at 23° C. The fixed cells were sequentially incubated with appropriate antibodies (in 2% BSA/PBS, 1.5 hour), washed 3 times with PBS^−/−, and followed by incubation with either Cy-2-conjugated or rhodamine-conjugated secondary antibodies (1:200) and with DAPI ([…]; 1:100) in 2% BSA/PBS for 45 minutes. Slides were analyzed and photographed by a fluorescence microscope (Olympus BX51, ×40). Background correction, and contrast adjustment of raw data images were performed using Photoshop (Adobe, CA, USA).
The effect of Z56 was compared with that of the inhibitory effect of EPE peptide on nuclear translocation of ERK1/2.
The effects of the compounds on ERK1/2 nuclear translocation were evaluated in three cell lines (HeLa cells and two melanoma cell lines, A2185 and A2352), by treating the cells with each compound for two hours, and determining nuclear translocation using fluorescent anti-ERK antibodies, according to procedures described hereinabove.

[2] = test system: Panc-1, AsPC-1, CFPAC-1, MIA PaCa-2, Capan-1, Capan-2 and BxPC-3 pancreatic cancer cells; assay: Viability assay (methylene blue), pancreatic cancer cell lines
Protocol: FIGS. 6A and 6B present data showing that Compound Z56 prevents proliferation of pancreatic cancer cells. […] Panc-1, AsPC-1, CFPAC-1, Mia PaCa-2, Capan-1, Capan-2 (Ras-transformed) and BxPC-3 (Ras-wild type) pancreatic cancer cells were treated with either EPE peptide (10 μM; middle bars) or Z56 (3 μM; right bars) or DMSO control (0.1%; left bars) in 1% FCS for 72 hours. […] Panc-1, AsPC-1, BxPC-3 and Mia PaCa-2 cells grown in 1% FCS medium containing either EPE peptide (10 μM), 56 (3 μM), PLX4032 (1 μM), PD184352 (5 μM) or DMSO control (0.1%). The graphs present the kinetics of cell proliferation at the indicated times after the treatment started. Quantification of all viable cells was done by methylene blue and repeated 3 times in triplicates. All results presented as a fold change of the initial cell number and represent averages ±SE.
as §1
Activating mutations in Ras are found in more than 95% of pancreatic cancers where signaling through both Raf and Akt pathway drives cancer progression [Campbell et al., Cancer Res 2007, 67:2098-2106]. However, no effective treatments that target this mutant protein have reached the clinic to date, and pancreatic ductal adenocarcinoma remains an almost universally fatal disease [Bryant et al., Trends Biochem Sci 2014, 39:91-100]. Therefore, treating these pancreatic cancer cells downstream of Ras, without overactivating the Akt pathway, should be at least partially beneficial. The effect of Compound Z56 (and EPE peptide) on cell viability of Ras-transformed (and Ras-wild type) pancreatic cancer cells was determined, using a variety of cell lines.
The effects of Compound Z56 on the viability of pancreatic cancer cell lines at various times after treatment was compared with those of PLX4032 (a B-Raf inhibitor) and PD184352 (a MEK1/2 inhibitor).

## O=S1(=O)CCC(OCc2ccccc2)C1 (stereo not drawn) [Compound C8]
A2185 and A2352 cells; 10 μM, 72 hours, 1% FCS
  cell viability (percentage of DMSO control): did not exhibit significant activity
A2185 and A2352 cells
  activity in SAR summary of FIGS. 10A-10C (cell viability): less active

## O=C(OC1CS(=O)(=O)CC1Br)c1ccccc1 (stereo not drawn) [Compound C22]
[1]
  nuclear accumulation of ERK1/2 upon TPA stimulation: inhibited
A2185 and A2352 cells; 72 hours, 1% FCS
  cell viability at lower concentration: at least as potent as Compound Z2
  cell viability, dose response: dose dependent manner
A2185 and A2352 cells; 10 μM, 72 hours, 1% FCS
  viability at 10 µM: < 40%
A2185 and A2352 cells
  activity in SAR summary of FIGS. 10A-10C (cell viability): far more active than Compound C6

## O=C(Nc1ccccc1)OC1C=CS(=O)(=O)C1 (stereo not drawn) [Compound C12]
A2185 and A2352 cells; 10 μM, 72 hours, 1% FCS
  cell viability (percentage of DMSO control): did not exhibit significant activity
A2185 and A2352 cells
  activity in SAR summary of FIGS. 10A-10C (cell viability): less active

## CCOC(=O)c1ccc(NC2C=CS(=O)(=O)C2)cc1 (stereo not drawn) [Compound C1]
A2185 and A2352 cells; 10 μM, 72 hours, 1% FCS
  viability at 10 µM: < 40%
A2185 and A2352 cells
  activity in SAR summary of FIGS. 10A-10C (cell viability): lower activity (relative to Compound Z2)

## O=S1(=O)C=CC(O)C1 (stereo not drawn) [Compound C4]
A2185 and A2352 cells; 10 μM, 72 hours, 1% FCS
  cell viability (percentage of DMSO control): did not exhibit significant activity

## O=S1(=O)C=CC2ON=C(c3cccnc3)C21 (stereo not drawn) [Compound D13]
A2185 and A2352 cells; 10 μM, 72 hours, 1% FCS
  anti-viability activity: higher activity than did Compound D7

## O=C(NOCC1CC1)c1ccc(F)c(F)c1Nc1ccc(I)cc1Cl [PD184352]
[2]; 5 μM, all tested cell lines (Panc-1, AsPC-1, BxPC-3, Mia PaCa-2)
  viability, time course: reduced the viability

## O=S1(=O)C=CC2ON=C(c3c(Cl)cccc3Cl)C21 (stereo not drawn) [Compound C23]
[1]
  nuclear accumulation of ERK1/2 upon TPA stimulation: inhibited
A2185 and A2352 cells; 72 hours, 1% FCS
  cell viability at lower concentration: at least as potent as Compound Z2
  cell viability, dose response: dose dependent manner
A2185 and A2352 cells; 10 μM, 72 hours, 1% FCS
  viability at 10 µM: < 40%

## O=C(OC1CCCS(=O)(=O)C1)c1ccccc1F (stereo not drawn) [Compound C31]
A2185 and A2352 cells; 10 μM, 72 hours, 1% FCS
  cell viability (percentage of DMSO control): did not exhibit significant activity
A2185 and A2352 cells
  activity in SAR summary of FIGS. 10A-10C (cell viability): inactive

## O=S1(=O)CCC(Oc2ccccc2)C1 (stereo not drawn) [Compound C5]
A2185 and A2352 cells; 10 μM, 72 hours, 1% FCS
  viability at 10 µM: < 80%

## Cc1ccc(C(=O)OC2CCS(=O)(=O)C2)cc1 (stereo not drawn) [Compound C11]
A2185 and A2352 cells; 10 μM, 72 hours, 1% FCS
  cell viability (percentage of DMSO control): did not exhibit significant activity
A2185 and A2352 cells
  activity in SAR summary of FIGS. 10A-10C (cell viability): inactive

## Cc1ccc(OC2CCS(=O)(=O)C2)cc1 (stereo not drawn) [Compound C21]
A2185 and A2352 cells; 10 μM, 72 hours, 1% FCS
  cell viability (percentage of DMSO control): did not exhibit significant activity
A2185 and A2352 cells
  activity in SAR summary of FIGS. 10A-10C (cell viability): lower activity (relative to Compound Z2)

## Cc1ccccc1OC1CCS(=O)(=O)C1 (stereo not drawn) [Compound C20]
A2185 and A2352 cells; 10 μM, 72 hours, 1% FCS
  cell viability (percentage of DMSO control): did not exhibit significant activity
A2185 and A2352 cells
  activity in SAR summary of FIGS. 10A-10C (cell viability): lower activity (relative to Compound Z2)

## O=C(OC1CCS(=O)(=O)C1)c1ccnc(OCc2ccccc2)c1 (stereo not drawn) [Compound C16]
A2185 and A2352 cells; 10 μM, 72 hours, 1% FCS
  cell viability (percentage of DMSO control): did not exhibit significant activity

## Cn1ccc2c(C(=O)OC3CCS(=O)(=O)C3)cccc21 (stereo not drawn) [Compound C32]
A2185 and A2352 cells; 10 μM, 72 hours, 1% FCS
  cell viability (percentage of DMSO control): did not exhibit significant activity

## O=S1(=O)C=CC2ON=C(c3cc(Cl)cc(Cl)c3)C21 (stereo not drawn) [Compound C6]
A2185 and A2352 cells; 10 μM, 72 hours, 1% FCS
  cell viability (percentage of DMSO control): did not exhibit significant activity
A2185 and A2352 cells
  activity in SAR summary of FIGS. 10A-10C (cell viability): inactive

## O=C(CCc1ccccc1)OC1C=CS(=O)(=O)C1 (stereo not drawn) [Compound C3]
A2185 and A2352 cells; 10 μM, 72 hours, 1% FCS
  viability at 10 µM: < 80%

## CCCS(=O)(=O)Nc1ccc(F)c(C(=O)c2c[nH]c3ncc(-c4ccc(Cl)cc4)cc23)c1F [PLX4032]
[2]; 1 μM, Ras-mutated AsPC-1 cells
  proliferation, time course: to some extent
[2]; 1 μM, other Ras-transformed pancreatic cancer cells (Panc-1, Mia PaCa-2)
  viability, time course: not affecting the viability

## O=C(OC1CCCS(=O)(=O)C1)c1ccc(F)cc1 (stereo not drawn) [Compound C15]
A2185 and A2352 cells; 10 μM, 72 hours, 1% FCS
  cell viability (percentage of DMSO control): did not exhibit significant activity
A2185 and A2352 cells
  activity in SAR summary of FIGS. 10A-10C (cell viability): inactive

## CC(C)OC(=O)c1ccc(NC(=O)CC2C=CS(=O)(=O)C2)cc1 (stereo not drawn) [Compound C14]
A2185 and A2352 cells; 10 μM, 72 hours, 1% FCS
  cell viability (percentage of DMSO control): did not exhibit significant activity
A2185 and A2352 cells
  activity in SAR summary of FIGS. 10A-10C (cell viability): lower activity (relative to Compound Z2)

## CS(=O)(=O)CCOC(=O)c1cccc(Br)c1 [Compound C19]
A2185 and A2352 cells; 10 μM, 72 hours, 1% FCS
  cell viability (percentage of DMSO control): did not exhibit significant activity
A2185 and A2352 cells
  activity in SAR summary of FIGS. 10A-10C (cell viability): inactive

## O=C(NC1C=CS(=O)(=O)C1)c1ccccc1 (stereo not drawn) [Compound C2]
A2185 and A2352 cells; 10 μM, 72 hours, 1% FCS
  viability at 10 µM: < 80%
A2185 and A2352 cells
  activity in SAR summary of FIGS. 10A-10C (cell viability): less active
